Like-named read-outs stand apart in the source and are kept apart here.
Columns and labels:
[1] = Determination of cytotoxicity (Experiment 3, resazurin assay); assay type: cell-based; settings: human; HepG2 cells, incubated for 4 days, resazurin assay; read-out: Experiment 3 Cytotoxicity CC50
Experimental: Compound dilution. All the compounds for in vitro anti-HBV activity assay and cytotoxicity assay were 3-fold diluted into 8 concentrations. The final concentration of the tested compound was 30 μM, the final starting concentration of reference compound GLS4 was 1 μM, and the final concentration of DMSO was 0.5%. Experiment 3: Determination of Cytotoxicity The cytotoxicity of the test compound was tested using HepG2 cells. The cells were incubated for 4 days in the presence of the test compound. Cell activity was assessed using the resazurin assay.

HBV = assay: Determination of anti-HBV activity in HepG2.2.15 cell (Experiment 2, HBV DNA in supernatant by qPCR); assay type: cell-based; settings: Hepatitis B virus; HepG2.2.15 cells, HBV DNA in supernatant on the eighth day, qPCR; read-out: Experiment 2 Cell experiment EC50
Experimental: Experiment 2: Determination of Anti-HBV Activity in HepG2.2.15 Cell
Compound dilution. All the compounds for in vitro anti-HBV activity assay and cytotoxicity assay were 3-fold diluted into 8 concentrations. The final concentration of the tested compound was 30 μM, the final starting concentration of reference compound GLS4 was 1 μM, and the final concentration of DMSO was 0.5%.
HepG2.2.15 cell (4×10^4 cell/well) was inoculated into 96 well plate, and cultured overnight in 37° C., 5% CO2. On the second day, fresh culture medium containing different concentrations of the compound was added into the culture wells. On the fifth day, the old culture solution in the culture well was aspirated and fresh culture medium containing different concentrations of the compound was added.
On the eighth day, the supernatant in the culture well was collected for extraction of HBV DNA, and the content of DNA in the supernatant of HepG2.2.15 HBV was detected by qPCR. After the supernatant was collected, the medium and Cell-titer Glo reagent were added into the culture well, and the chemiluminescence value of each well was measured by microplate reader.
The activity calculation formula was as follows: Y=Bottom+(Top−Bottom)/(1+10^((LogIC50−X)*Hillslope));

C150 protein = target: T1, C150 protein (Hepatitis B virus genotype D subtype adw, UniProt P03147, C107A/C48A/C61A/R150C); assay: In vitro anti-HBV nucleocapsid assembly activity test (Experiment 1, protein experiment); assay type: biochemical
T1 construct: purchased WuXi Apptec Co., Ltd
T1 sequence (P03147 1-150 C48A/C61A/C107A/R150C): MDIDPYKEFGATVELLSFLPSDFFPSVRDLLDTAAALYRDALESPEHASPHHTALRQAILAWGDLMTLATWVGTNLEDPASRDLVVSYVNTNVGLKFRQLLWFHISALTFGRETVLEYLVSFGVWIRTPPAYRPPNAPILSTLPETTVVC
Experimental: Experiment 1: In Vitro Anti-HBV Nucleocapsid Assembly Activity Test
Main Reagents and Raw Materials:
C150 protein was expressed and purified by WuXi Apptec Co., Ltd.
BoDIPY® FL was purchased from Thermo Fisher Scientific.
Protein Fluorescent Label:
150 μL of 2% w/v skimmed milk was added into each well of 96-well plate, and incubated at room temperature for 2 hours. The skimmed milk was aspirated. The plate was washed with deionized water and dried, and stored at room temperature. C150 protein (3 mg per tube) was desalted with 5 ml Hitrap desalting column. The desalted C150 protein of each tube was added with 50 mM BoDIPY® FL Fluorescent Dye (20 μl), and incubated under 4° C. overnight in the dark after well mixed. Sephadex G-25 gel was used for filtration to remove fluorescent dyes that were not bounded onto C150. The C150 fluorescent labeling efficiency was calculated according to the following equation: [BoDIPY®FL]=A504/78,000 M^−1; [C150Bo]=(A280−[BoDIPY®FL]×1300 M^−1)/60,900 M^−1; Fluorescent Labeling Efficiency=[BoDIPY®FL]/[C150Bo];
The mother liquor of compound was diluted with DMSO to 6 mM, then diluted to 600 μM with 50 mM HEPES, and then further 3-fold diluted with 10 DMSO/50 mM HEPES to 8 concentrations.
C150Bo was diluted to 2 μM with 50 mM HEPES. 37.5 μL of C150Bo and 2.5 μL of compound at each concentration were added into a 96 well plate and well mixed, then incubated at room temperature for 15 minutes. 10 μl of 750 mM NaCl/50 mM HEPES were added into the each reaction well, and the final concentration of NaCl was 150 mM.
Into the control wells in the 0% protein group 10 μL of 50 mM HEPES was added, and the final concentration of NaCl was 0 mM.
Into the control wells in the 100% protein group 10 μL of 5 M/50 mM HEPES was added, and the final concentration of NaCl was 1 M.
The final concentration of DMSO was 0.5%, the maximum final concentration of the compound was 30 μM, and final concentration of C150Bo was 1.5 μM. The mixture was incubated at room temperature for 1 hour. Fluorescence signal was measured (excitation light was 485 nm; emission light was 535 nm).
Data Analysis % protein assembly=[1−(Sample fluorescence value−1 M NaCl fluorescence value)/(0 M NaCl fluorescence value−1 M NaCl fluorescence value)]×100.
IC50 value was calculated by prism software, and the equation was as follows: Y=Bottom+(Top−Bottom)/(1+10^((LogIC50−X)HillSlope));

[2] = fluorescently labeled C150 (C150Bo) 1.5 μM, 150 mM NaCl, 1 hour at room temperature, read-out: Experiment 1 Protein experiment IC50

SMILES | CC50 at 4 days [1] | EC50 (HBV) | IC50 (C150 protein; [2]) | IC50 (C150 protein)
CC(CO)NS(=O)(=O)c1c(Cl)c(C(=O)Nc2cc(F)nc(C#N)c2)n2c1CCC2 (stereo not drawn) [Compound 20ff] | > 30 µM | 0.0001 to 0.1 µM | 1 to 100 µM | –
Cc1c(S(=O)(=O)NC(C)CO)c2n(c1C(=O)Nc1ccnc(C(F)F)c1)CCC2 (stereo not drawn) [Compound 20ii] | > 30 µM | 0.1 to 1 µM | 1 to 100 µM | –
Cc1c(S(=O)(=O)NC(C)CO)c2n(c1C(=O)Nc1cc(F)nc(C#N)c1)CCC2 (stereo not drawn) [Compound 20jj] | > 30 µM | 0.1 to 1 µM | 1 to 100 µM | –
O=C(Nc1ccc(F)c(F)c1)c1c(Cl)c(S(=O)(=O)NC2C3CCC2CC(O)(CO)C3)c2n1CCC2 (stereo not drawn) [Compound 20kk] | > 30 µM | 0.0001 to 0.1 µM | 1 to 100 µM | –
N#Cc1cc(NC(=O)c2c(Cl)c(S(=O)(=O)NC3C4CCC3CC(O)(CO)C4)c3n2CCC3)cc(F)n1 (stereo not drawn) [Compound 20ll] | > 30 µM | 0.0001 to 0.1 µM | 1 to 100 µM | –
C[C@@H](NS(=O)(=O)c1c(Cl)c(C(=O)Nc2ccc(F)c(F)c2)n2c1C=CCC2)C(F)(F)F [Compound 30a] | > 30 µM | 0.0001 to 0.1 µM | < 1 µM | –
C[C@@H](NS(=O)(=O)c1c(Cl)c(C(=O)Nc2ccc(F)c(C#N)c2)n2c1C=CCC2)C(F)(F)F [Compound 30b] | > 30 µM | 0.0001 to 0.1 µM | – | 1 to 100 µM
C[C@@H](NS(=O)(=O)c1c(Cl)c(C(=O)Nc2ccnc(Cl)c2)n2c1C=CCC2)C(F)(F)F [Compound 30c] | > 30 µM | 0.0001 to 0.1 µM | – | 1 to 100 µM
Cc1c(S(=O)(=O)NC2C3CCC2CC(O)(CO)C3)c2n(c1C(=O)Nc1ccc(F)c(F)c1)CCC=C2 (stereo not drawn) [Compound 30r] | > 30 µM | 0.0001 to 0.1 µM | 1 to 100 µM | –
N#Cc1cc(NC(=O)c2c(Cl)c(S(=O)(=O)NC3C4CCC3CC(O)(c3cc(-c5ccccc5)on3)C4)c3n2CCC=C3)cc(F)n1 (stereo not drawn) [Compound 30s] | > 30 µM | 0.1 to 1 µM | 1 to 100 µM | –
Cc1c(S(=O)(=O)NC2C3CCC2CC(O)(c2cc(-c4ccccc4)on2)C3)c2n(c1C(=O)Nc1cc(F)nc(C#N)c1)CCC=C2 (stereo not drawn) [Compound 30t] | > 30 µM | 0.1 to 1 µM | 1 to 100 µM | –
C[C@@H](NS(=O)(=O)c1c(Cl)c(C(=O)Nc2ccc(F)c(F)c2)n2c1CCCC2)C(F)(F)F [Compound 40a] | > 30 µM | 0.0001 to 0.1 µM | < 1 µM | –
C[C@@H](NS(=O)(=O)c1c(Cl)c(C(=O)Nc2ccc(F)c(C#N)c2)n2c1CCCC2)C(F)(F)F [Compound 40b] | > 30 µM | 0.0001 to 0.1 µM | – | 1 to 100 µM
C[C@@H](NS(=O)(=O)c1c(Cl)c(C(=O)Nc2ccnc(Cl)c2)n2c1CCCC2)C(F)(F)F [Compound 40c] | > 30 µM | 0.0001 to 0.1 µM | – | 1 to 100 µM
CC(NS(=O)(=O)c1c(Cl)c(C(=O)Nc2cc(F)nc(C#N)c2)n2c1CCCC2)C(F)(F)F (stereo not drawn) [Compound 40d] | > 30 µM | 0.0001 to 0.1 µM | 1 to 100 µM | –
Cc1c(S(=O)(=O)NC(C)C(F)(F)F)c2n(c1C(=O)Nc1ccc(F)c(F)c1)CCCC2 (stereo not drawn) [Compound 40e] | > 30 µM | 0.0001 to 0.1 µM | 1 to 100 µM | –
Cc1c(S(=O)(=O)NC(C)C(F)(F)F)c2n(c1C(=O)Nc1ccc(F)c(C#N)c1)CCCC2 (stereo not drawn) [Compound 40f] | > 30 µM | 0.0001 to 0.1 µM | 1 to 100 µM | –
